In PubChem BioAssay (NCI):
Several values for one entry are separate records, joined by “and”; a condition that tells them apart may be missing. Identical values can stand only once.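 Method: 48-hour compound exposure of cells in 96-well plates, five concentrations, linear interpolation of endpoints. The concentration for 50% growth inhibition is given as GI50. TGI: total growth inhibition.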

Tests used:
Assay in all cases: NCI tumour cell line growth inhibition, 48 h
NCI-H522 lung = system: NCI-H522 lung
UACC-257 melanoma = system: UACC-257 melanoma
SK-OV-3 ovarian = system: SK-OV-3 ovarian
IGROV1 ovarian = system: IGROV1 ovarian
SN12C renal = system: SN12C renal
SR leukemia = system: SR leukemia
M14 melanoma = system: M14 melanoma
K-562 leukemia = system: K-562 leukemia
SNB-19 CNS = system: SNB-19 CNS
HCT-15 colon = system: HCT-15 colon

## N/N=C(\c1nc2ccc(Cl)cc2[nH]c1=O)C(O)c1ccc(Cl)c(Cl)c1 (centres undefined)
NCI-H522 lung
  TGI: > 100 µM
UACC-257 melanoma
  TGI: > 100 µM
SK-OV-3 ovarian
  TGI: > 100 µM
IGROV1 ovarian
  TGI: > 100 µM
SN12C renal
  TGI: > 100 µM
SR leukemia
  TGI: > 100 µM
M14 melanoma
  TGI: > 100 µM
K-562 leukemia
  TGI: > 100 µM
SNB-19 CNS
  TGI: > 100 µM
HCT-15 colon
  TGI: > 100 µM

## C[n+]1c2ccccc2nc2ccccc21
NCI-H522 lung
  GI50: 1300 nM
  TGI: 3.45 µM
UACC-257 melanoma
  GI50: 1.8 µM
  TGI: 5.01 µM
SK-OV-3 ovarian
  GI50: 4.59 µM
  TGI: 18.1 µM
IGROV1 ovarian
  GI50: 2860 nM
  TGI: 14 µM
SN12C renal
  GI50: 1630 nM
  TGI: 3.41 µM
SR leukemia
  GI50: 6.14 µM
  TGI: > 28.2 µM
M14 melanoma
  GI50: 1670 nM
  TGI: 3.89 µM
K-562 leukemia
  GI50: 1860 nM
  TGI: > 32.4 µM
SNB-19 CNS
  GI50: 4.03 µM
  TGI: 16.8 µM
HCT-15 colon
  GI50: 2.07 µM
  TGI: 10.8 µM

## CC1CC(C)C2OC2(C)C[C@H](C)C(=O)NC(C)C(=O)N(C)[C@H](Cc2c(Br)[nH]c3ccccc23)C(=O)N[C@@H](c2ccc(O)cc2)CC(=O)O1 (some centres undefined)
NCI-H522 lung
  TGI: 0.856 µM
UACC-257 melanoma
  TGI: 13.3 µM
SK-OV-3 ovarian
  TGI: 3.04 µM
IGROV1 ovarian
  TGI: 0.683 µM
SN12C renal
  TGI: > 100 µM
SR leukemia
  TGI: > 100 µM
M14 melanoma
  TGI: 19.5 µM
K-562 leukemia
  TGI: > 77.4 µM
SNB-19 CNS
  TGI: 0.544 µM
HCT-15 colon
  TGI: > 100 µM

## COc1ccc(C(=O)CC2=Nc3nnc(CCCCCCCc4nnc5n4C(=O)C(CC(=O)c4ccc(OC)cc4)=N5)n3C2=O)cc1
NCI-H522 lung
  TGI: > 100 µM
UACC-257 melanoma
  TGI: > 100 µM
SK-OV-3 ovarian
  TGI: > 100 µM
IGROV1 ovarian
  TGI: > 100 µM
SN12C renal
  TGI: > 100 µM
SR leukemia
  TGI: > 100 µM
M14 melanoma
  TGI: > 100 µM
K-562 leukemia
  TGI: > 100 µM
SNB-19 CNS
  TGI: > 100 µM
HCT-15 colon
  TGI: > 100 µM

## Cc1nc2ccccn2c1NC(=O)NNC(=S)Nc1ccc(F)cc1
NCI-H522 lung
  GI50: > 100000 nM
  TGI: > 100 µM
UACC-257 melanoma
  GI50: > 100 µM
  TGI: > 100 µM
SK-OV-3 ovarian
  GI50: > 100 µM
  TGI: > 100 µM
IGROV1 ovarian
  GI50: > 100000 nM
  TGI: > 100 µM
SN12C renal
  GI50: > 100000 nM
  TGI: > 100 µM
SR leukemia
  GI50: 19.5 µM
  TGI: > 100 µM
M14 melanoma
  GI50: > 100000 nM
  TGI: > 100 µM
K-562 leukemia
  GI50: > 100000 nM
  TGI: > 100 µM
SNB-19 CNS
  GI50: > 100 µM
  TGI: > 100 µM
HCT-15 colon
  GI50: > 100 µM
  TGI: > 100 µM

## Cn1c(-c2ccccc2)c(/C=C/C2=[N+](C)c3ccccc3C2(C)C)c2ccccc21
NCI-H522 lung
  GI50: 863 nM
  TGI: 3.78 µM
UACC-257 melanoma
  GI50: 0.405 µM
  TGI: 2.53 µM
SK-OV-3 ovarian
  GI50: 2.38 µM
  TGI: 8.03 µM
IGROV1 ovarian
  GI50: 1870 nM
  TGI: 6.07 µM
SN12C renal
  GI50: 1700 nM
  TGI: 12.8 µM
SR leukemia
  GI50: 0.433 µM
  TGI: 5.77 µM
M14 melanoma
  GI50: 963 nM
  TGI: 3.4 µM
K-562 leukemia
  GI50: 128 nM
  TGI: 5.3 µM
SNB-19 CNS
  GI50: 0.571 µM
  TGI: 15.5 µM
HCT-15 colon
  GI50: 3.92 µM
  TGI: 22.1 µM

## CCCCCCCC/C=C1\CCC(CN2CCOCC2)C1=O (centres undefined)
NCI-H522 lung
  TGI: 6.79 µM
UACC-257 melanoma
  TGI: 21.7 µM
SK-OV-3 ovarian
  TGI: 34.3 µM
IGROV1 ovarian
  TGI: 21 µM
SN12C renal
  TGI: 12.5 µM
SR leukemia
  TGI: 5.3 µM
M14 melanoma
  TGI: 16.7 µM
K-562 leukemia
  TGI: 8.68 µM
SNB-19 CNS
  TGI: 24.6 µM
HCT-15 colon
  TGI: 9.52 µM

## O=C(/C=C1\C(=O)N(Cc2ccccc2)c2ccccc21)c1ccc(OCCN2CCCCC2)cc1
NCI-H522 lung
  GI50: 1710 nM
  TGI: 3.21 µM
UACC-257 melanoma
  GI50: 12.9 µM
  TGI: 25.9 µM
SK-OV-3 ovarian
  GI50: 15 µM
  TGI: 28.2 µM
IGROV1 ovarian
  GI50: 1760 nM
  TGI: 3.55 µM
SN12C renal
  GI50: 1900 nM
  TGI: 4.03 µM
SR leukemia
  GI50: 1.77 µM
  TGI: 9.55 µM
M14 melanoma
  GI50: 1920 nM
  TGI: 3.72 µM
K-562 leukemia
  GI50: 1840 nM
  TGI: 6.53 µM
SNB-19 CNS
  GI50: 2.26 µM
  TGI: 5.99 µM
HCT-15 colon
  GI50: 1.71 µM
  TGI: 3.31 µM

## Cc1ccc(S(=O)(=O)OC(COC(=O)c2ccccc2)C(OS(=O)(=O)c2ccc(C)cc2)C(OS(=O)(=O)c2ccc(C)cc2)C(COC(=O)c2ccccc2)OS(=O)(=O)c2ccc(C)cc2)cc1 (centres undefined)
NCI-H522 lung
  TGI: > 100 µM
UACC-257 melanoma
  TGI: > 100 µM
SK-OV-3 ovarian
  TGI: > 10 µM
IGROV1 ovarian
  TGI: > 10 µM
SN12C renal
  TGI: > 100 µM
SR leukemia
  TGI: > 100 µM
M14 melanoma
  TGI: > 100 µM
K-562 leukemia
  TGI: > 100 µM
SNB-19 CNS
  TGI: > 100 µM
HCT-15 colon
  TGI: > 100 µM

## Cc1c(N)nc(C(CC(N)=O)NCC(N)C(N)=O)nc1C(=O)NC(C(=O)NC(C)C(O)C(C)C(=O)NC(C(=O)NCCc1nc(-c2nc(C(=O)NCCCNC(C)c3ccccc3)cs2)cs1)C(C)O)C(OC1OC(CO)C(O)C(O)C1OC1OC(CO)C(O)C(OC(N)=O)C1O)c1cnc[nH]1 (centres undefined)
NCI-H522 lung
  GI50: 4100 nM
  TGI: 20 µM and 44.3 µM
UACC-257 melanoma
  GI50: 56.5 µM
  TGI: 50 µM and > 100 µM
SK-OV-3 ovarian
  TGI: 45.6 µM
IGROV1 ovarian
  GI50: 8210 nM
  TGI: 50 µM and > 100 µM
SN12C renal
  GI50: 5990 nM
  TGI: 29.3 µM and > 100 µM
SR leukemia
  GI50: 50.3 µM
  TGI: 50 µM and > 100 µM
M14 melanoma
  GI50: 5130 nM
  TGI: 29.6 µM and > 100 µM
K-562 leukemia
  GI50: 11800 nM
  TGI: 50 µM and > 100 µM
SNB-19 CNS
  GI50: 14.5 µM
  TGI: 39.7 µM and > 100 µM
HCT-15 colon
  GI50: 26.8 µM
  TGI: 50 µM and > 100 µM

## O=c1oc2cc(OC/C(=N/O)c3ccc(F)cc3)ccc2c2ccccc12
NCI-H522 lung
  GI50: 17500 nM
  TGI: 37 µM
UACC-257 melanoma
  GI50: 22.9 µM
  TGI: 39.4 µM
SK-OV-3 ovarian
  GI50: 24 µM
  TGI: 41.3 µM
IGROV1 ovarian
  GI50: 23600 nM
  TGI: 42 µM
SN12C renal
  GI50: 20100 nM
  TGI: 37.3 µM
SR leukemia
  GI50: 26.6 µM
  TGI: 69.2 µM
M14 melanoma
  GI50: 19200 nM
  TGI: 33.7 µM
K-562 leukemia
  GI50: 20100 nM
  TGI: 46.3 µM
SNB-19 CNS
  GI50: 21.8 µM
  TGI: 46.3 µM
HCT-15 colon
  GI50: 20.7 µM
  TGI: 42.4 µM

## COC(=O)C1CC(OC(C)=O)C=C2C(=O)CCC21 (centres undefined)
NCI-H522 lung
  TGI: 3.75 µM
UACC-257 melanoma
  TGI: 37 µM
SK-OV-3 ovarian
  TGI: 69.9 µM
IGROV1 ovarian
  TGI: 82.6 µM
SN12C renal
  TGI: 41.9 µM
SR leukemia
  TGI: 45.4 µM
M14 melanoma
  TGI: 50.2 µM
K-562 leukemia
  TGI: 29.3 µM
SNB-19 CNS
  TGI: 60.3 µM
HCT-15 colon
  TGI: 30.9 µM

## CCCCCCCC(=O)SCC/C=C/[C@@H]1CC(=O)NCc2nc(cs2)C2=N[C@@](C)(CS2)C(=O)N[C@@H](C(C)C)C(=O)N1
NCI-H522 lung
  GI50: 27.8 nM
  TGI: 11.1 µM
UACC-257 melanoma
  GI50: < 0.01 µM
  TGI: 0.0392 µM
SK-OV-3 ovarian
  GI50: 0.0149 µM
  TGI: 0.14 µM
IGROV1 ovarian
  GI50: 15.3 nM
  TGI: 1.8 µM
SN12C renal
  GI50: 34 nM
  TGI: > 100 µM
SR leukemia
  GI50: < 0.0112 µM
  TGI: > 100 µM
M14 melanoma
  GI50: 32.3 nM
  TGI: > 100 µM
K-562 leukemia
  GI50: 18.2 nM
  TGI: > 100 µM
SNB-19 CNS
  GI50: 0.0419 µM
  TGI: > 41.1 µM
HCT-15 colon
  GI50: 3.42 µM
  TGI: 97 µM

## CCOC(=O)C1=C(C)N(NC(N)=O)C2(N)N(NC(N)=O)C(C)=C(C(=O)OCC)C12C(=O)OCC (centres undefined)
NCI-H522 lung
  TGI: > 100 µM
UACC-257 melanoma
  TGI: > 100 µM
SK-OV-3 ovarian
  TGI: > 100 µM
IGROV1 ovarian
  TGI: > 100 µM
SN12C renal
  TGI: > 100 µM
SR leukemia
  TGI: > 100 µM
M14 melanoma
  TGI: > 100 µM
K-562 leukemia
  TGI: > 100 µM
SNB-19 CNS
  TGI: > 100 µM
HCT-15 colon
  TGI: > 100 µM
